In patent US12409199B2, “Methods of treating endometriosis and other noncancer gynecological disorders with hemp extract” (Ecofibre USA Inc., priority 2021, dated 2025):
Like-named read-outs stand apart in the source and are kept apart here.

Key:
[1] = test system: patient derived organoids; test: Death of patient derived organoids, % of cells that died compared to control (Table 4); type: cell-based, human
Procedure: In addition to the agents listed above, several other drugs were tested to see if they influenced organoid growth. […] This is consistent with the patient's actual lack of response to treatment with paclitaxel.

[2] = test system: stage IV chemoresistant endometrial cancer with metastatic disease; test: Treatment of a patient with stage IV chemoresistant endometrial cancer, PET/CT follow up
Text: Soon after the experiments detailed above a person came to us. They were initially diagnosed with endometriosis, and later diagnosed with endometrial cancer after presenting with significant pain and discomfort. They had already undergone a total hysterectomy and bilateral salpingo-oophorectomy followed by five rounds of chemotherapy. Each of the first five rounds of chemotherapy was a combined chemotherapy with Paclitaxil/Carboplatin.
See, Tables 1 and 2, below. […] As such, […] began standard protocol GemCap treatment in combination with a regime of 30 mg of BSHE twice daily via oral mucosal delivery and 75 mg of FSHE once daily via intravaginal delivery.

[3] = test system: organoids derived from ovarian cancer tissue; test: Impact of pH on % viable organoids (FIG. 9)
[4] = cited from earlier work
[5] = test system: patient derived endometrial cancer cells; test: Patient-derived xenograft (PDX) mice, endometrial cancer tumor volume (FIG. 7); type: in vivo; conditions: for decrease in tumor volume compared to starting size: day 14 (6 doses)
Procedure: Mouse studies are useful to take cell-based applications and confirm their efficacy in a whole animal system. Furthermore, the mice allow for testing of systemic delivery of the drugs. […] The mice tests were performed according to the protocol in the method section, below.
Generally, EC stem cells from the same patients that participated in the organoid studies for endometrial cancer, were injected into the mice, and allowed to grow. After tumors reached a certain size, the mice were either injected (3 times/week) with the extract-delivery vehicle or with the particular cannabis extract. After a certain amount of time elapsed, tumor size was measured. The details regarding patient-derived xenograft methodology and experimental protocol are provided in the Methods section.
The % change is an average number taken from tumor volumes of three mice compared to the starting average tumor volume on day 0 of treatment. Change can either be positive (tumor increases in size) or negative (tumor decreases in size).
Human patient cells from endometrial cancer were injected subcutaneously into female NOD/SCID gamma mice after resuspending in 100 μL solution. […] Tumor size was measured before treatment, followed by twice a week measurements. All treatment group mice were kept alive for up to 10 weeks after drug injection or until the tumor volume grows bigger than 2500 mm^3.
Tumor size was measured along with body weight at the time of tissue collection. All tumor tissues were removed carefully from the euthanized mouse body. Tumor tissue samples were kept for histology, proteomics, genomics, and other downstream processing. All downstream processing was completed following NCI Patient-Derived Models Repository SOPs.

[6] = test system: endometriosis based organoids; test: % viability of endometriosis based organoids (FIG. 6A/6B); type: cell-based, human
Procedure: After narrowing down the range in which 50% of endometrial cancer organoids were inhibited from forming in the presence of BSHE, we then turned to other cannabis extracts comprising CBE to determine their efficacy in inhibiting cancerous organoid formation. […] These cannabis extracts were then tested against endometrial based organoids, which confirm the efficacy across the different cells, both in the endometrial cancer based organoids as well as in the endometriosis based organoids.
FIG. 6B then tests the same endometrial based organoids with a CBDA isolate. Here, slightly higher concentrations were required to reach below 10% viability. […] However, these studies confirm that the efficacy of the CE comprising CBD was conserved over different grades of endometrial cancer and also to endometriosis based organoids.

[7] = test system: non-transformed cells; conditions: cited from earlier work
[8] = oral; cited from earlier work
[9] = test system: organoids crafted from the patient's endometrial cancer; test: Response of organoids crafted from the patient's endometrial cancer to alternative chemotherapies and BSHE; type: cell-based, human
Text: See, Tables 1 and 2, below.

[10] = before cannabis extract treatment

## 5-Fluorouaracil/Capecitabine
[1]
  % Cell Death: 61%

## CCN1CCN(Cc2ccc(Nc3ncc(F)c(-c4cc(F)c5nc(C)n(C(C)C)c5c4)n3)nc2)CC1 [Abemaciclib, reference compound]
[2]; human, in vivo
  adverse effects of earlier therapy: severe adverse effects

## C=C(C)[C@@H]1CCC(C)=C[C@H]1c1c(O)cc(CCCCC)cc1O [CBD isolate, cannabidiol]
[3]; 10 μg/mL, pH 8
  efficacy compared with native pH: virtually no change
[3]; pH 4
  viability at 10 µg/mL: < 1%
[3]; read-out: % of viable organoids
  viability at 10 µg/mL: ~12%
[4]; WHO 41st Expert Committee on Drug Dependence
  potential for abuse or dependence: no potential for abuse and no potential to produce dependence
[4]; chronic use, humans
  well tolerated dose: up to 1,500 mg/day
[4]; in vivo
  effect on physiological parameters (heart rate, blood pressure and body temperature), gastrointestinal transit, psychomotor or psychological functions: does not affect
[5]; 30 mg/kg injected 3 times/week
  tumor response over the 21 days of treatment: not as responsive
[5]; 30 mg/kg
  decrease in tumor volume compared to starting size: less than 50%
[6]; tested at 0, 1, 2, 3, 4, 5, 7, 10 μg/mL, FIG. 6A
  lowest dose at which the organoids are completely treated: 5 µg/mL
[7]
  toxicity: non-toxic
[8]
  delayed maximum plasma concentration (time) in some individuals: up to 6 hours

## C=C(C)[C@@H]1CCC(C)=C[C@H]1c1c(O)cc(CCCCC)c(C(=O)O)c1O [CBDA isolate, cannabidiolic acid]
[5]; 30 mg/kg injected 3 times/week, day 7 (3 doses)
  increase in average tumor volume vs day 0: greater than 30%
[5]; 30 mg/kg injected 3 times/week, day 10
  decrease in average tumor volume vs day 0: greater than 30%
[5]; 30 mg/kg, day 7 to day 10
  overall decrease in average tumor volume in three days: greater than 60%
[5]; 30 mg/kg
  decrease in tumor volume compared to starting size: 70%
[5]; 30 mg/kg, day 21 (9 doses)
  decrease in average tumor volume: ~100%
[6]; 50 μg/mL, FIG. 6B
  viability outcome: complete resolution
[6]; Homo sapiens, 15 μg/mL, FIG. 6B
  viability at 15 µg/mL: < 50%
[6]; Homo sapiens, 25 μg/mL, FIG. 6B, <10% is considered 95-100% cell death
  viability at 25 µg/mL: < 10%

## N.N.O=C([O-])C1(C(=O)[O-])CCC1.[Pt+2] [Carboplatin]
[1]
  % Cell Death: 30%

## N.N.[Cl][Pt][Cl] [Cisplatin]
[1]
  % Cell Death: 36%

## O=P1(N(CCCl)CCCl)NCCCO1 (centres unmarked) [Cyclosphosphamide]
[1]
  % Cell Death: 32%

## Atezolizumab
[2]; [10]
  adverse effects of earlier therapy: severe adverse effects
  clinical outcome of earlier therapy: failed

## Bleomycin
[1]
  % Cell Death: 53%

## Paclitaxil/Carboplatin [reference compound]
[2]; [10]
  clinical outcome of earlier therapy: ineffective

## gemcitabine/capecitabine [GemCap]
[9]
  response of the patient's organoids: partial response
